Reference: patent US9777000B2, “Pyrazole derivative” (MOCHIDA PHARMACEUTICAL CO., LTD., priority 2013, dated 2017)

Target: human PDE10 (Homo sapiens (Human), UniProt Q9Y233)
Assay: Evaluation of enzyme inhibitory activity: human PDE10 inhibitory effect (IMAP TR-FRET)
Format: biochemical
Conditions: cAMP substrate
Protocol: (Evaluation of Enzyme Inhibitory Activity: Human PDE10 Inhibitory Effect)
IMAP TR-FRET Phosphodiersterase Evaluation Assay Kit (Molecular Device) was used for the measurement. Ten μL of a diluted test compound having each concentration and 5 μL of the enzyme PDE10 (BPA Bioscience) that had been diluted to 2 ng/mL with 1×IMAP Reaction Buffer (prepared with 5×included with the kit, 10 mM Tris-HCl, pH=7.2, 10 mM MgCl2, 0.05% NaN3, and 0.1% BSA) containing 0.1% BSA were added to a 384-well plate (Corning). The obtained mixture was then pre-incubated at room temperature for 5 minutes. Thereafter, 5 μL of cAMP substrate solution which was included with the kit and diluted to 400 nM with 1×IMAP Reaction Buffer containing 0.1% BSA, was added to the reaction solution, and the obtained mixture was reacted at room temperature for 60 minutes. Thereafter, 60 μL of an IMAP TR-FRET Binding solution included with the kit was further added to the reaction solution, and the obtained mixture was then left for 3 hours or more. Subsequently, using ARVO SX (PerkinElmer), the fluorescent intensity of Terbium (Emission=490 nm) and TR-FRET (Emission=520 nm) in the reaction solution were measured at an excitation wavelength of 340 nm, so as to calculate the amount of the generated 5′-AMP. The count of a well to which a solvent had been added instead of the test compound was set at 0%, and the count of a well to which the enzyme PDE10 had not been added was set at 100%. Thus, the inhibitory activity of each test compound was calculated.
The PDE10 inhibitory activity of the test compound was indicated with an IC50 value. […] The test compounds are shown in Table 3 (Table 3-1 and Table 3-2).

Chain of human PDE10 (Q9Y233 whole entry): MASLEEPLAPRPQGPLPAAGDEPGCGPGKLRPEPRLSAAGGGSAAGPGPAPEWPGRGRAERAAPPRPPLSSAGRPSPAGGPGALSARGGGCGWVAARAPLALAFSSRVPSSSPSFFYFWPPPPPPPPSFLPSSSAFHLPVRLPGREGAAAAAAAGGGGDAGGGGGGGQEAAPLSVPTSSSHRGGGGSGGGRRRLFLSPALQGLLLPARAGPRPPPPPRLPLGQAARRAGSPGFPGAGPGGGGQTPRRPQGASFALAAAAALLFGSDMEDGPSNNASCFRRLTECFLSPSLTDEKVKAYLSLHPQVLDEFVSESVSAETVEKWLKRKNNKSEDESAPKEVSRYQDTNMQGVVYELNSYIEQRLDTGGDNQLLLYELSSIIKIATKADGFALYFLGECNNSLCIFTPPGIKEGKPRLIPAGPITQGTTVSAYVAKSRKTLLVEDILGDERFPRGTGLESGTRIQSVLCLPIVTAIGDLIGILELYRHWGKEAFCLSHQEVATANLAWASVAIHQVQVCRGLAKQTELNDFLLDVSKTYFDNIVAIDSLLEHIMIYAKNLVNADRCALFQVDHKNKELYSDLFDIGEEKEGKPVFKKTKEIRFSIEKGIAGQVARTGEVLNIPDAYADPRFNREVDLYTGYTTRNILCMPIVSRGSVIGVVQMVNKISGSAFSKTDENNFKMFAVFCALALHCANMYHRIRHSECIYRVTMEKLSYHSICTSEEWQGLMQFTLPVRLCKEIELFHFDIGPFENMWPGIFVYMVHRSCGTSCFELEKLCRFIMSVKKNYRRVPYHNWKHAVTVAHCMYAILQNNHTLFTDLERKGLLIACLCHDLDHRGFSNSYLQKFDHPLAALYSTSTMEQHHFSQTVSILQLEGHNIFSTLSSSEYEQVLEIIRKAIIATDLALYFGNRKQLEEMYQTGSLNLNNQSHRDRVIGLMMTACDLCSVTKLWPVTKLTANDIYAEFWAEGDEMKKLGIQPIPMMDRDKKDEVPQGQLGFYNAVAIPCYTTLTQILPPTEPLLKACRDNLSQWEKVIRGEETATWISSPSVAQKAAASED

Structure (SMILES) | IC50
Cc1cccc(-c2cnn(C)c2C(=O)Nc2ccn3nc(N4CCC[C@@H]4C)nc3c2)n1 [Example 4.7, (S)-1-methyl-4-(6-methylpyridin-2-yl)-N-(2-(2-methylpyrrolidin-1-yl)-[1,2,4]triazolo[1,5-a]pyridin-7-yl)-1H-pyrazole-5-carboxamide] | < 5 nM
C[C@@H]1CN(c2nc3cc(NC(=O)c4c(-c5nc(C(F)F)cs5)cnn4C)ccn3n2)C[C@H](C)O1 [Example 3.19, 4-(4-(difluoromethyl)thiazol-2-yl)-N-(2-((2S,6R)-2,6-dimethylmorpholino)-[1,2,4]triazolo[1,5-a]pyridin-7-yl)-1-methyl-1H-pyrazole-5-carboxamide] | < 5 nM
Cc1cncc(-c2cnn(C)c2C(=O)Nc2cc3nc(-c4ccccc4)nn3cc2F)n1 [Example 3.9, N-(6-fluoro-2-phenyl-[1,2,4]triazolo[1,5-a]pyridin-7-yl)-1-methyl-4-(6-methylpyrazin-2-yl)-1H-pyrazole-5-carboxamide] | < 5 nM
Cc1ccc(-c2cnn(C)c2C(=O)Nc2cc3nc(-c4ccccc4)nn3cc2F)nn1 [Example 3.45, N-(6-fluoro-2-phenyl-[1,2,4]triazolo[1,5-a]pyridin-7-yl)-1-methyl-4-(6-methylpyridazin-3-yl)-1H-pyrazole-5-carboxamide] | < 5 nM
Cn1ncc(-c2nc(C(F)(F)F)cs2)c1C(=O)Nc1ccn2nc(N3CCCC3)nc2c1 [Example 4.34, 1-methyl-N-(2-(pyrrolidin-1-yl)-[1,2,4]triazolo[1,5-a]pyridin-7-yl)-4-(4-(trifluoromethyl)thiazol-2-yl)-1H-pyrazole-5-carboxamide] | < 5 nM
Cn1ncc(-c2nc(C(F)(F)F)cs2)c1C(=O)NC1CCn2cc(-c3cccc(F)c3)nc2C1 (stereo not shown) [Example 2.8, N-(2-(3-fluorophenyl)-5,6,7,8-tetrahydroimidazo[1,2-a]pyridin-7-yl)-1-methyl-4-(4-(trifluoromethyl)thiazol-2-yl)-1H-pyrazole-5-carboxamide] | < 5 nM
Cc1nccnc1-c1cnn(C)c1C(=O)Nc1cc2nc(-c3ccccc3)nn2cc1F [Example 3.32, N-(6-fluoro-2-phenyl-[1,2,4]triazolo[1,5-a]pyridin-7-yl)-1-methyl-4-(3-methylpyrazin-2-yl)-1H-pyrazole-5-carboxamide] | < 5 nM
Cc1nccc(-c2cnn(C)c2C(=O)Nc2cc3nc(-c4ccccc4)nn3cc2F)n1 [Example 3.25, N-(6-fluoro-2-phenyl-[1,2,4]triazolo[1,5-a]pyridin-7-yl)-1-methyl-4-(2-methylpyrimidin-4-yl)-1H-pyrazole-5-carboxamide] | < 5 nM
Cn1ncc(-c2nc(C(F)F)cs2)c1C(=O)Nc1ccn2nc(N3CC[C@H](F)C3)nc2c1 [Example 4.15, (S)-4-(4-(difluoromethyl)thiazol-2-yl)-N-(2-(3-fluoropyrrolidin-1-yl)-[1,2,4]triazolo[1,5-a]pyridin-7-yl)-1-methyl-1H-pyrazole-5-carboxamide] | < 5 nM
Cn1ncc(-c2nc(C(F)F)c(Cl)s2)c1C(=O)NC1CCn2cc(-c3ccccc3)nc2C1 (stereo not shown) [Example 2.5, 4-(5-chloro-4-(difluoromethyl)thiazol-2-yl)-1-methyl-N-(2-phenyl-5,6,7,8-tetrahydroimidazo[1,2-a]pyridin-7-yl)-1H-pyrazole-5-carboxamide] | < 5 nM
Cn1ncc(-c2cccc(C(F)(F)F)n2)c1C(=O)Nc1ccn2nc(N3CC[C@H](F)C3)nc2c1 [Example 4.16, (S)-N-(2-(3-fluoropyrrolidin-1-yl)-[1,2,4]triazolo[1,5-a]pyridin-7-yl)-1-methyl-4-(6-(trifluoromethyl)pyridin-2-yl)-1H-pyrazole-5-carboxamide] | < 5 nM
Cc1sc(-c2cnn(C)c2C(=O)Nc2ccn3cc(-c4ccccc4)nc3c2)nc1C(F)F [Example 1.4, 4-(4-(difluoromethyl)-5-methylthiazol-2-yl)-1-methyl-N-(2-phenylimidazo[1,2-a]pyridin-7-yl)-1H-pyrazole-5-carboxamide] | < 5 nM
Cc1cncc(-c2cnn(C)c2C(=O)Nc2ccn3nc(N4CC[C@H](F)C4)nc3c2)n1 [Example 4.19, (S)-N-(2-(3-fluoropyrrolidin-1-yl)-[1,2,4]triazolo[1,5-a]pyridin-7-yl)-1-methyl-4-(6-methylpyrazin-2-yl)-1H-pyrazole-5-carboxamide] | < 5 nM
Cc1cccc(-c2cnn(C)c2C(=O)NC2CCn3cc(-c4ccccc4)nc3C2)n1 (stereo not shown) [Example 2.9, 1-methyl-4-(6-methylpyridin-2-yl)-N-(2-phenyl-5,6,7,8-tetrahydroimidazo[1,2-a]pyridin-7-yl)-1H-pyrazole-5-carboxamide] | < 5 nM
Cc1ncc(C)c(-c2cnn(C)c2C(=O)Nc2cc3nc(-c4ccccc4)nn3cc2F)n1 [Example 3.22, 4-(2,5-dimethylpyrimidin-4-yl)-N-(6-fluoro-2-phenyl-[1,2,4]triazolo[1,5-a]pyridin-7-yl)-1-methyl-1H-pyrazole-5-carboxamide] | < 5 nM
CCc1csc(-c2cnn(C)c2C(=O)Nc2ccn3nc(-c4ccccc4)nc3c2)n1 [Example 3.18, 4-(4-ethylthiazol-2-yl)-1-methyl-N-(2-phenyl-[1,2,4]triazolo[1,5-a]pyridin-7-yl)-1H-pyrazole-5-carboxamide] | < 5 nM
Cc1cc(C)nc(-c2cnn(C)c2C(=O)Nc2cc3nc(-c4ccccc4)nn3cc2F)c1 [Example 3.11, 4-(4,6-dimethylpyridin-2-yl)-N-(6-fluoro-2-phenyl-[1,2,4]triazolo[1,5-a]pyridin-7-yl)-1-methyl-1H-pyrazole-5-carboxamide] | < 5 nM
Cn1ncc(-c2cccnn2)c1C(=O)Nc1cc2nc(-c3ccccc3)nn2cc1F [Example 3.47, N-(6-fluoro-2-phenyl-[1,2,4]triazolo[1,5-a]pyridin-7-yl)-1-methyl-4-(pyridazin-3-yl)-1H-pyrazole-5-carboxamide] | < 5 nM
Cc1sc(-c2cnn(C)c2C(=O)Nc2ccn3nc(N4CCCC4)nc3c2)nc1C(F)F [Example 4.33, 4-(4-(difluoromethyl)-5-methylthiazol-2-yl)-1-methyl-N-(2-(pyrrolidin-1-yl)-[1,2,4]triazolo[1,5-a]pyridin-7-yl)-1H-pyrazole-5-carboxamide] | < 5 nM
Cc1cnc(-c2cnn(C)c2C(=O)NC2CCn3cc(-c4ccccc4)nc3C2)s1 (stereo not shown) [Example 2.15, 1-methyl-4-(5-methylthiazol-2-yl)-N-(2-phenyl-5,6,7,8-tetrahydroimidazo[1,2-a]pyridin-7-yl)-1H-pyrazole-5-carboxamide] | < 5 nM
Cn1ncc(-c2nc(C(F)F)cs2)c1C(=O)Nc1ccn2nc(-c3cccc(F)c3)nc2c1 [Example 3.17, 4-(4-(difluoromethyl)thiazol-2-yl)-N-(2-(3-fluorophenyl)-[1,2,4]triazolo[1,5-a]pyridin-7-yl)-1-methyl-1H-pyrazole-5-carboxamide] | < 5 nM
Cn1ncc(-c2ncccc2C#N)c1C(=O)Nc1cc2nc(-c3ccccc3)nn2cc1F [Example 3.13, 4-(3-cyanopyridin-2-yl)-N-(6-fluoro-2-phenyl-[1,2,4]triazolo[1,5-a]pyridin-7-yl)-1-methyl-1H-pyrazole-5-carboxamide] | < 5 nM
Cc1csc(-c2cnn(C)c2C(=O)Nc2ccn3cc(-c4ccccc4)nc3c2)n1 [Example 1.2, 1-methyl-4-(4-methylthiazol-2-yl)-N-(2-phenylimidazo[1,2-a]pyridin-7-yl)-1H-pyrazole-5-carboxamide] | < 5 nM
Cn1ncc(-c2nc(C(F)(F)F)cs2)c1C(=O)Nc1ccn2nc(N3CC[C@@H](F)C3)nc2c1 [Example 4.13, (R)-N-(2-(3-fluoropyrrolidin-1-yl)-[1,2,4]triazolo[1,5-a]pyridin-7-yl)-1-methyl-4-(4-(trifluoromethyl)thiazol-2-yl)-1H-pyrazole-5-carboxamide] | < 5 nM
Cn1ncc(-c2nc(C(F)F)cs2)c1C(=O)Nc1ccn2nc(N3CCCC3)nc2c1 [Example 4.25, 4-(4-(difluoromethyl)thiazol-2-yl)-1-methyl-N-(2-(pyrrolidin-1-yl)-[1,2,4]triazolo[1,5-a]pyridin-7-yl)-1H-pyrazole-5-carboxamide] | < 5 nM
Cc1nc(-c2cnn(C)c2C(=O)NC2CCn3cc(-c4ccccc4)nc3C2)cs1 (stereo not shown) [Example 2.12, 1-methyl-4-(2-methylthiazol-4-yl)-N-(2-phenyl-5,6,7,8-tetrahydroimidazo[1,2-a]pyridin-7-yl)-1H-pyrazole-5-carboxamide] | < 5 nM
Cc1ccc(-c2cnn(C)c2C(=O)Nc2cc3nc(-c4ccccc4)nn3cc2F)nc1 [Example 3.51, N-(6-fluoro-2-phenyl-[1,2,4]triazolo[1,5-a]pyridin-7-yl)-1-methyl-4-(5-methylpyridin-2-yl)-1H-pyrazole-5-carboxamide] | < 5 nM
Cc1ncc(F)c(-c2cnn(C)c2C(=O)Nc2cc3nc(-c4ccccc4)nn3cc2F)n1 [Example 3.36, 4-(5-fluoro-2-methylpyrimidin-4-yl)-N-(6-fluoro-2-phenyl-[1,2,4]triazolo[1,5-a]pyridin-7-yl)-1-methyl-1H-pyrazole-5-carboxamide] | < 5 nM
